Source: US20230013602A1, “NOVEL IMIDAZOPYRAZINE DERIVATIVES” (Hoffmann-La Roche Inc., priority 2018, published 2023)
Counter-ions that a name gives are not always drawn.

Columns and labels:
[1] = system: Acinetobacter baumannii ATCC17961; experiment: Antimicrobial susceptibility testing, 90% growth inhibitory concentration (IC90) determination; format: cell-based; details: 90% growth inhibitory concentration, Acinetobacter baumannii ATCC17961, Iso-Sensitest broth, OD 600 nm over 16 h; read-out: ATCC17961 IC90
Procedure: (§1) The in vitro antimicrobial activity of the compounds was determined according to the following procedure:
(§2) The assay used a 10-points Iso-Sensitest broth medium to measure quantitatively the in vitro activity of the compounds against Acinetobacter baumannii ATCC 17978 and Acinetobacter baumannii ATCC17961.
(§3) Stock compounds in DMSO were serially twofold diluted (e.g. range from 50 to 0.097 μM final concentration) in 384 wells microtiter plates and inoculated with 49 μl the bacterial suspension in Iso-Sensitest medium to have a final cell concentration of ˜5×10^(5) CFU/ml in a final volume/well of 50 ul/well. Microtiter plates were incubated at 35+2° C.
(§4) Bacterial cell growth was determined with the measurement of optical density at X=600 nm each 20 minutes over a time course of 16 h. Growth inhibition was calculated during the logarithmic growth of the bacterial cells with determination of the concentration inhibiting 50% (IC50) and 90% (IC90) of the growth.
(§5) Table 1 provides the 90% growth inhibitory concentrations (IC90) in micromoles per liter of the compounds of present invention obtained against the strain Acinetobacter baumannii ATCC17978 and Acinetobacter baumannii ATCC17961.

[2] = system: Acinetobacter baumannii ATCC 17978; experiment: as above; format: cell-based; details: Acinetobacter baumannii ATCC17978, Iso-Sensitest broth, OD 600 nm over 16 h
Procedure: as §1, §2, §3, §4, §5

| SMILES | IC90 [1] | IC90 [2] |
| --- | --- | --- |
| CCc1cc(Nc2nccn3c(-c4ccc(OC)c(F)c4F)cnc23)ccc1C(=O)N[C@@H]1CCCC[C@@H]1N (racemic) [Example 8, rac-N-((1R,2S)-2-aminocyclohexyl)-4-((3-(2,3-difluoro-4-methoxyphenyl)imidazo[1,2-a]pyrazin-8-yl)amino)-2-ethylbenzamide] | 852 nM | 850 nM |
| COc1ccc(-c2cnc3c(Nc4ccc(C(=O)NC5CCC(NC(=O)[C@@H]6C[C@@H](O)CN6)C5)c(C)c4)nccn23)c(F)c1F (mixture of isomers) [Example 36, rac-(2R,4S)-N-[3-[[4-[[3-(2,3-difluoro-4-methoxyphenyl)imidazo[1,2-a]pyrazin-8-yl]amino]-2-methylbenzoyl]amino]cyclopentyl]-4-hydroxypyrrolidine-2-carboxamide] | 72 nM | 72 nM |
| CCc1cc(Nc2nccn3c(-c4ccc(OC)c(F)c4F)cnc23)ccc1C(=O)NC1(CN)CC1 [Example 4, N-(1-(aminomethyl)cyclopropyl)-4-((3-(2,3-difluoro-4-methoxyphenyl)imidazo[1,2-a]pyrazin-8-yl)amino)-2-ethylbenzamide hydrochloride] | 274 nM | 320 nM |
| CCc1cc(Nc2nccn3c(-c4ccc(OC)c(F)c4F)cnc23)ccc1C(=O)N[C@H]1CC[C@@H](NC(=O)[C@@H](N)CCCNC(=N)N)CC1 [Example 5, N-[4-[[(2S)-2-amino-5-guanidino-pentanoyl]amino]cyclo-hexyl]-4-[[3-(2,3-difluoro-4-methoxy-phenyl)imidazo[1,2-a]pyrazin-8-yl]amino]-2-ethyl-benzamide trifluoroacetate] | 176 nM | 180 nM |
| CCc1cc(Nc2nccn3c(-c4ccc(OC)c(F)c4F)cnc23)ccc1C(=O)N[C@H]1CC[C@@H](N)CC1 [Example 6, Cis-N-(4-aminocyclohexyl)-4-[[3-(2,3-difluoro-4-methoxy-phenyl)imidazo[1,2-a]pyrazin-8-yl]amino]-2-ethyl-benzamide] | 88 nM | 88 nM |
| CCc1cc(Nc2nccn3c(-c4ccc(OC)c(F)c4F)cnc23)ccc1C(=O)N[C@H]1CCC[C@@H]1N [Example 9, N-((1S,2S)-2-aminocyclopentyl)-4-((3-(2,3-difluoro-4-methoxyphenyl)imidazo[1,2-a]pyrazin-8-yl)amino)-2-ethylbenzamide] | 297 nM | 300 nM |
| CCc1cc(Nc2nccn3c(-c4ccc(OC)c(F)c4F)cnc23)ccc1C(=O)N[C@H]1C[C@@H](N)C1 [Example 11, Cis N-(3-aminocyclobutyl)-4-[[3-(2,3-difluoro-4-methoxy-phenyl)imidazo[1,2-a]pyrazin-8-yl]amino]-2-ethyl-benzamide] | 84 nM | 84 nM |
| CCc1cc(Nc2nccn3c(-c4ccc(OC)c(F)c4F)cnc23)ccc1C(=O)NC1CNC1 [Example 12, N-(azetidin-3-yl)-4-[[3-(2,3-difluoro-4-methoxy-phenyl)imidazo[1,2-a]pyrazin-8-yl]amino]-2-ethyl-benzamide] | 230 nM | 230 nM |
| CCc1cc(Nc2nccn3c(-c4ccc(OC)c(F)c4F)cnc23)ccc1C(=O)NC1CCNCC1 [Example 13, 4-[[3-(2,3-difluoro-4-methoxy-phenyl)imidazo[1,2-a]pyrazin-8-yl]amino]-2-ethyl-N-(4-piperidyl)benzamide] | 276 nM | 280 nM |
| CCc1cc(Nc2nccn3c(-c4ccc(OC)c(F)c4F)cnc23)ccc1C(=O)N[C@H]1C[C@H](N)C1 [Example 14, N-(3-aminocyclobutyl)-4-[[3-(2,3-difluoro-4-methoxy-phenyl)imidazo[1,2-a]pyrazin-8-yl]amino]-2-ethyl-benzamide] | 248 nM | 250 nM |
| CCc1cc(Nc2nccn3c(-c4ccc(OC)c(F)c4F)cnc23)ccc1C(=O)NC1(CNC(=N)N)CC1 [Example 18, N-[1-(carbamimidamidomethyl)cyclopropyl]-4-[[3-(2,3-difluoro-4-methoxyphenyl)imidazo[1,2-a]pyrazin-8-yl]amino]-2-ethylbenzamide] | 83 nM | 84 nM |
| CCc1cc(Nc2nccn3c(-c4ccc(OC)c(F)c4F)cnc23)ccc1C(=O)NC1(CNC(C)=N)CC1 [Example 19, 4-[[3-(2,3-difluoro-4-methoxyphenyl)imidazo[1,2-a]pyrazin-8-yl]amino]-N-[1-[(ethanimidoylamino)methyl]cyclopropyl]-2-ethylbenzamide] | 154 nM | 150 nM |
| CCc1cc(Nc2nccn3c(-c4ccc(OC)c(F)c4F)cnc23)ccc1C(=O)N[C@H]1CCNC1=O [Example 30, 4-[[3-(2,3-difluoro-4-methoxyphenyl)imidazo[1,2-a]pyrazin-8-yl]amino]-2-ethyl-N-[(3 S)-2-oxopyrrolidin-3-yl]benzamide] |  | 930 nM |
| COc1ccc(-c2cnc3c(Nc4ccc(C(=O)N[C@H]5CC[C@@H](N)CC5)c(C)c4)nccn23)c(F)c1F [Example 31, N-(4-aminocyclohexyl)-4-[[3-(2,3-difluoro-4-methoxyphenyl)imidazo[1,2-a]pyrazin-8-yl]amino]-2-methylbenzamide] | 53 nM | 53 nM |
| COc1ccc(-c2cnc3c(Nc4ccc(C(=O)NC5CCN(C(=O)[C@@H]6C[C@@H](O)CN6)CC5)c(C)c4)nccn23)c(F)c1F [Example 32, 4-[[3-(2,3-difluoro-4-methoxyphenyl)imidazo[1,2-a]pyrazin-8-yl]amino]-N-[1-[(2S,4R)-4-hydroxypyrroIidine-2-carbonyl]piperidin-4-yl]-2-methylbenzamide] | 66 nM | 66 nM |
| COc1ccc(-c2cnc3c(Nc4ccc(C(=O)N[C@H]5CC[C@@H](NC(=C(C)C)N(C)C)CC5)c(C)c4)nccn23)c(F)c1F [Example 33, 4-[[3-(2,3-difluoro-4-methoxyphenyl)imidazo[1,2-a]pyrazin-8-yl]amino]-N-[4-[[1-(dimethylamino)-2-methylprop-1-enyl]amino]cyclohexyl]-2-methylbenzamide;formic acid] | 75 nM | 75 nM |
| COc1ccc(-c2cnc3c(Nc4ccc(C(=O)N[C@H]5CC[C@@H](NC(=O)[C@@H]6C[C@@H](O)CN6)CC5)c(C)c4)nccn23)c(F)c1F [Example 34, (2S,4R)-N-[4-[[4-[[3-(2,3-difluoro-4-methoxyphenyl)imidazo[1,2-a]pyrazin-8-yl]amino]-2-methylbenzoyl]amino]cyclohexyl]-4-hydroxypyrrolidine-2-carboxamide] | 54 nM | 54 nM |
| COc1ccc(-c2cnc3c(Nc4ccc(C(=O)N[C@H]5C[C@@H](N)C5)c(C)c4)nccn23)c(F)c1F [Example 35, N-(3-aminocyclobutyl)-4-[[3-(2,3-difluoro-4-methoxyphenyl)imidazo[1,2-a]pyrazin-8-yl]amino]-2-methylbenzamide] | 62 nM | 63 nM |
| CCc1cc(Nc2nccn3c(-c4ccc(OC)c(F)c4F)cnc23)ccc1C(=O)N[C@H]1C[C@@H](NC(=O)[C@@H](N)CCCNC(=N)N)C1 [Example 37, N-[3-[[(2S)-2-amino-5-carbamimidamidopentanoyl]amino]cyclobutyl]-4-[[3-(2,3-difluoro-4-methoxyphenyl)imidazo[1,2-a]pyrazin-8-yl]amino]-2-ethylbenzamide;2,2,2-trifluoroacetic acid] | 99 nM | 99 nM |
| COc1ccc(-c2cnc3c(Nc4ccc(C(=O)N[C@@H]5CCNC5)c(C)c4)nccn23)c(F)c1F [Example 38, 4-[[3-(2,3-difluoro-4-methoxyphenyl)imidazo[1,2-a]pyrazin-8-yl]amino]-2-methyl-N-[(3R)-pyrrolidin-3-yl]benzamide] | 162 nM | 160 nM |
| CCc1cc(Nc2nccn3c(-c4ccc(OC)c(F)c4F)cnc23)ccc1C(=O)NC1CCC1N (centres unmarked) [Example 39, N-(2-aminocyclobutyl)-4-[[3-(2,3-difluoro-4-methoxyphenyl)imidazo[1,2-a]pyrazin-8-yl]amino]-2-ethylbenzamide] | 288 nM | 290 nM |
| CCc1cc(Nc2nccn3c(-c4ccc(OC)c(F)c4F)cnc23)ccc1C(=O)NC1(CN)COC1 [Example 40, N-(3-(aminomethyl)oxetan-3-yl)-4-((3-(2,3-difluoro-4-methoxyphenyl)imidazo[1,2-a]pyrazin-8-yl)amino)-2-ethylbenzamide hydrochloride] |  | 482 nM |
| COc1ccc(-c2cnc3c(Nc4ccc(C(=O)N(C)CCC(=O)N5CCNCC5)c(C)c4)nccn23)cc1F [Reference Example 10, 4-[[3-(3-fluoro-4-methoxy-phenyl)imidazo[1,2-a]pyrazin-8-yl]amino]-N,2-dimethyl-N-(3-oxo-3-piperazin-1-yl-propyl)benzamide] | 290 nM | 290 nM |
